A short description of series [1]: T3 and T4 concentration in humans with MCT8 deficiency. It is filed as in vivo.
Series [2] can be described thus: Effect of DITPA on removal of gastrostomy tube (G-tube). It is filed as in vivo, human. The conditions noted are these: one child who started DITPA while having a G-tube.
For series [3], the system named is MCT8-mutant (mct82/2) larvae. As to conditions: cited from earlier work.
Series [4] relates to MCT8-deficient (knockout) mice (Mct8KO). As to conditions: cited from earlier work.
The subject of series [5] is MCT8 mutant (mct8−/−) zebrafish. As to conditions: cited from earlier work.
Another series concerns wild type mice. The conditions noted are these: T3-treated wild type mice; cited from earlier work.
The conditions of series [6]: human, in vivo; cited from earlier work.

Turning to `O=C(O)CCc1cc(I)c(Oc2ccc(O)cc2)c(I)c1` [DITPA, 3,5-diiodothyropropionic acid], in series [1], the T3 concentration result was “reduction” and the T4 concentration result is reported as “increase”. In series [2], the G-tube result is listed as “removed” and the body weight entry is recorded as “gained weight”. In addition, the “myelin and axon outgrowth deficiencies” value in series [3] is “restored the myelin and axon outgrowth deficiencies in mct82/2 larvae”. Besides, in series [4], the TH deficit entry is given as “corrects the TH deficit”; the “analysis of TH target genes: thyrotoxic state in the liver” value is given as “target genes revealed amelioration of the thyrotoxic state in the liver”; the “measurements and other parameters of TH action” value is “SRW101 normalized all measurements and other parameters of TH”; the “thyrotoxic effect in the liver” value is on record as “without causing”. Besides, the “hypomyelination in the CNS” value in series [5] is reported as “TH analogs partially rescued the hypomyelination in the CNS of MCT8”.
For `N[C@@H](Cc1cc(I)c(Oc2ccc(O)c(I)c2)c(I)c1)C(=O)O` [T3, triiodothyronine], in the series on wild type mice, the “TEE (total energy expenditure)” value is “mice showed increased food intake and TEE, similar to MCT8KO mice”; the food intake entry was “mice showed increased food intake and TEE, similar to MCT8KO mice”.
On to `O=C(O)Cc1cc(I)c(Oc2ccc(O)c(I)c2)c(I)c1` [TRIAC, triiodothyroacetic acid], for which, in series [6], the “effects in pediatric subjects” value is given as “analog Triac has also been studied in pediatric subjects with positive”.

The record behind these values is US20240009156A1, “METHODS AND FORMULATIONS FOR PRENATAL TREATMENT OF ALLAN-HERNDON-DUDLEY SYNDROME” (PriZm, LLC, priority 2022, published 2024).
